Test results from article PMC3694426 (Clinical cancer research : an official journal of the …, 2013).
Entries after “also recorded” stand apart in the source; their conditions may differ.

Assay: phase I dose escalation: DLTs, MTD and treatment-emergent adverse events
Assay type: in vivo, human
Conditions: for patients who experienced DLTs: modified DLT criteria

CC1=C2C[C@H]3[C@@H](CC[C@@H]4C[C@H](NS(C)(=O)=O)CC[C@@]43C)[C@@H]2CC[C@@]2(C1)O[C@@H]1C[C@H](C)CN[C@H]1[C@H]2C [IPI-926]
DLTs per total patients treated (20 mg QD): 0/1
DLTs per total patients treated (30 mg QD): 0/1
DLTs per total patients treated (40 mg QD): 0/1
DLTs per total patients treated (60 mg QD): 0/1
DLTs per total patients treated (90 mg QD): 0/1
ALT elevation (lab), treatment-emergent adverse event (130 mg (n = 56), Grade 1–2): 40 (71) n (%)
AST elevation (lab), treatment-emergent adverse event (130 mg (n = 56), Grade 1–2): 41 (73) n (%)
Alopecia, treatment-emergent adverse event (130 mg (n = 56), Grade 1–2): 17 (30) n (%)
Decreased appetite, treatment-emergent adverse event (130 mg (n = 56), Grade 1–2): 12 (21) n (%)
Diarrhea, treatment-emergent adverse event (130 mg (n = 56), Grade 1–2): 15 (27) n (%)
Dysgeusia, treatment-emergent adverse event (130 mg (n = 56), Grade 1–2): 6 (11) n (%)
Fatigue, treatment-emergent adverse event (130 mg (n = 56), Grade 1–2): 29 (52) n (%)
Muscle spasms, treatment-emergent adverse event (130 mg (n = 56), Grade 1–2): 11 (20) n (%)
Nausea, treatment-emergent adverse event (130 mg (n = 56), Grade 1–2): 23 (41) n (%)
Thrombocytopenia (lab), treatment-emergent adverse event (130 mg (n = 56), Grade 1–2): 12 (21) n (%)
Vomiting, treatment-emergent adverse event (130 mg (n = 56), Grade 1–2): 11 (20) n (%)
ALT elevation (lab), treatment-emergent adverse event (130 mg (n = 56), Grade ≥3): 4 (7) n (%)
AST elevation (lab), treatment-emergent adverse event (130 mg (n = 56), Grade ≥3): 2 (4) n (%)
Alopecia, treatment-emergent adverse event (130 mg (n = 56), Grade ≥3): 0 (0) n (%)
Decreased appetite, treatment-emergent adverse event (130 mg (n = 56), Grade ≥3): 0 (0) n (%)
Diarrhea, treatment-emergent adverse event (130 mg (n = 56), Grade ≥3): 0 (0) n (%)
Dysgeusia, treatment-emergent adverse event (130 mg (n = 56), Grade ≥3): 1 (2) n (%)
Fatigue, treatment-emergent adverse event (130 mg (n = 56), Grade ≥3): 3 (5) n (%)
Hemoglobin (lab), treatment-emergent adverse event (130 mg (n = 56), Grade ≥3): 2 (4) n (%)
Muscle spasms, treatment-emergent adverse event (130 mg (n = 56), Grade ≥3): 1 (2) n (%)
Nausea, treatment-emergent adverse event (130 mg (n = 56), Grade ≥3): 0 (0) n (%)
Thrombocytopenia (lab), treatment-emergent adverse event (130 mg (n = 56), Grade ≥3): 3 (5) n (%)
Vomiting, treatment-emergent adverse event (130 mg (n = 56), Grade ≥3): 0 (0) n (%)
DLTs per total patients treated (130 mg QD): 0/56
ALT elevation (lab), treatment-emergent adverse event (160 mg (n = 18), Grade 1–2): 10 (55) n (%)
AST elevation (lab), treatment-emergent adverse event (160 mg (n = 18), Grade 1–2): 14 (78) n (%)
Alopecia, treatment-emergent adverse event (160 mg (n = 18), Grade 1–2): 4 (22) n (%)
Decreased appetite, treatment-emergent adverse event (160 mg (n = 18), Grade 1–2): 5 (28) n (%)
Diarrhea, treatment-emergent adverse event (160 mg (n = 18), Grade 1–2): 2 (11) n (%)
Dysgeusia, treatment-emergent adverse event (160 mg (n = 18), Grade 1–2): 4 (22) n (%)
Fatigue, treatment-emergent adverse event (160 mg (n = 18), Grade 1–2): 8 (44) n (%)
Hemoglobin (lab), treatment-emergent adverse event (160 mg (n = 18), Grade 1–2): 12 (66) n (%)
Muscle spasms, treatment-emergent adverse event (160 mg (n = 18), Grade 1–2): 6 (33) n (%)
Nausea, treatment-emergent adverse event (160 mg (n = 18), Grade 1–2): 6 (33) n (%)
Thrombocytopenia (lab), treatment-emergent adverse event (160 mg (n = 18), Grade 1–2): 4 (22) n (%)
Vomiting, treatment-emergent adverse event (160 mg (n = 18), Grade 1–2): 6 (33) n (%)
ALT elevation (lab), treatment-emergent adverse event (160 mg (n = 18), Grade ≥3): 5 (28) n (%)
AST elevation (lab), treatment-emergent adverse event (160 mg (n = 18), Grade ≥3): 2 (11) n (%)
Alopecia, treatment-emergent adverse event (160 mg (n = 18), Grade ≥3): 0 (0) n (%)
Decreased appetite, treatment-emergent adverse event (160 mg (n = 18), Grade ≥3): 0 (0) n (%)
Diarrhea, treatment-emergent adverse event (160 mg (n = 18), Grade ≥3): 1 (6) n (%)
Dysgeusia, treatment-emergent adverse event (160 mg (n = 18), Grade ≥3): 1 (6) n (%)
Fatigue, treatment-emergent adverse event (160 mg (n = 18), Grade ≥3): 3 (17) n (%)
Hemoglobin (lab), treatment-emergent adverse event (160 mg (n = 18), Grade ≥3): 1 (6) n (%)
Muscle spasms, treatment-emergent adverse event (160 mg (n = 18), Grade ≥3): 0 (0) n (%)
Nausea, treatment-emergent adverse event (160 mg (n = 18), Grade ≥3): 0 (0) n (%)
Thrombocytopenia (lab), treatment-emergent adverse event (160 mg (n = 18), Grade ≥3): 0 (0) n (%)
Vomiting, treatment-emergent adverse event (160 mg (n = 18), Grade ≥3): 0 (0) n (%)
DLT description (160 mg QD): Grade 3 AST and ALT elevation
patients with DLT (grade 3 ALT and grade 3 AST elevation) (160 mg QD): 1 of 6
DLTs per total patients treated (160 mg QD (dose selected for phase II)): 1/18
patients with ≥grade 3 ALT elevations (160 mg QD, the MTD): 28%
patients with ≥grade 3 AST elevations (160 mg QD, the MTD): 11%
DLT description (180 mg QD): Grade 3 fatigue and anorexia; also recorded: Grade 3 AST and ALT elevation
DLTs per total patients treated (180 mg QD (intolerable dose level)): 2/5
patients who experienced DLTs (180 mg QD): 2 patients
DLT description (200 mg QD): Grade 3 AST elevation; also recorded: Grade 3 ALT elevation
patients with adverse events that met DLT criteria (200 mg QD): 2 patients
DLTs per total patients treated (200 mg QD (intolerable dose level)): 2/3
DLT description (210 mg QD): Grade 3 AST and ALT elevation; also recorded: Grade 2 ALT elevation and hyperbilirubinemia
DLTs per total patients treated (210 mg QD (intolerable dose level)): 2/7
patients who experienced DLTs (210 mg QD): 2 patients
patients discontinued from the study due to toxicity (6 of 94 patients): 6%
≥grade 2 toxicities (20, 30, 40, 60 and 90 mg, 1-patient cohorts): no ≥grade 2 toxicities were documented
deaths while on study (94 patients): No patients died while on study
ALT elevation (lab), treatment-emergent adverse event (<130 mg (n = 5), Grade 1–2): 1 (20) n (%)
AST elevation (lab), treatment-emergent adverse event (<130 mg (n = 5), Grade 1–2): 1 (20) n (%)
Alopecia, treatment-emergent adverse event (<130 mg (n = 5), Grade 1–2): 1 (20) n (%)
Decreased appetite, treatment-emergent adverse event (<130 mg (n = 5), Grade 1–2): 0 (0) n (%)
Diarrhea, treatment-emergent adverse event (<130 mg (n = 5), Grade 1–2): 0 (0) n (%)
Dysgeusia, treatment-emergent adverse event (<130 mg (n = 5), Grade 1–2): 1 (20) n (%)
